For the test, the system named is Swiss mice, Sarcoma 180 sc, mean tumor weight T/C. The test can be described thus: NCI In Vivo Anticancer Drug Screen. Data for tumor model Sarcoma 180 (subcutaneous) in Swiss mice. Particulars: endpoint: mean tumor weight, higher = larger tumour. An outline of the steps:
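Antitumor activity is assessed in mice with transplantable tumors. Treated (T) and vehicle control (C) groups are compared on survival or tumor size.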

[1] abbreviates: dose: 2.5 mg/kg/injection, schedule: Q#A X014 (ip), vehicle: methylcellulose (MC).
Where [2] appears, read: dose: 66.0 mg/kg/injection, schedule: Q01DX007 (ip), vehicle: water.
Setting [3] is: dose: 100.0 mg/kg/injection, schedule: Q01DX007 (ip), vehicle: water.
[4] abbreviates: dose: 150.0 mg/kg/injection, schedule: Q01DX007 (ip), vehicle: water.
The mark [5] stands for this setting: dose: 225.0 mg/kg/injection, schedule: Q01DX007 (ip), vehicle: water.

Molecules are shown by their SMILES. “And” between values parts separate entries of the source, which are not always exact repeats. Identical values can stand only once. Square brackets hold non-standard residues; d marks the D form. Peptide text beside a SMILES is read from it. ξ: configuration not given here. Ac5c = NC1(C(=O)O)CCCC1; ξS = NC(CO)C(=O)O

The source of these data is PubChem BioAssay AID342 (DTP/NCI, 2004).

Broadly, the T/C is the result in the treated group divided by that in the control group, in per cent.

For the compound `O=C(CCN1CC1)OCCOC(=O)CCN1CC1`, the T/C (dose: 4.0 mg/kg/injection, schedule: Q#A X014 (ip), vehicle: methylcellulose (MC)) is 44 % of control; the T/C (dose: 6.0 mg/kg/injection, schedule: Q#A X014 (ip), vehicle: methylcellulose (MC)) is 60 % of control; the T/C (dose: 9.0 mg/kg/injection, schedule: Q#A X014 (ip), vehicle: methylcellulose (MC)) is 50 % of control.

Turning to `OCC(F)(F)C(F)(F)C(F)(F)F`, the T/C (dose: 222.0 mg/kg/injection, schedule: Q01DX007 (ip), vehicle: other) is 56 % of control; the T/C (dose: 250.0 mg/kg/injection, schedule: Q01DX007 (ip), vehicle: saline) was 74 % of control; the T/C (dose: 333.0 mg/kg/injection, schedule: Q01DX007 (ip), vehicle: other) is 82 % of control; the T/C (dose: 500.0 mg/kg/injection, schedule: Q01DX007 (ip), vehicle: other) is 56 % of control; the T/C (dose: 750.0 mg/kg/injection, schedule: Q01DX007 (ip), vehicle: other) is 90 % of control.

For the compound `NC1=CC(=O)c2ccccc2C1=O`, the T/C is, setting by setting: (dose: 31.0 mg/kg/injection, schedule: Q01DX007 (ip), vehicle: other) 73 % of control; (dose: 62.0 mg/kg/injection, schedule: Q01DX007 (ip), vehicle: other) 83 % of control.

Take `C=CCOc1ccc2c(c1)CC[C@@H]1[C@@H]2CC[C@]2(C)[C@@H](O)[C@@H](O)C[C@@H]12`: the T/C is 90 % of control (dose: 0.25 mg/kg/injection, schedule: Q#A X014 (sc), vehicle: steriod suspending solution); 106 % of control (dose: 0.5 mg/kg/injection, schedule: Q01DX007 (sc), vehicle: steriod suspending solution); 77 % of control (dose: 1.25 mg/kg/injection, schedule: Q01DX007 (sc), vehicle: steriod suspending solution); 68 % of control (dose: 1.25 mg/kg/injection, schedule: Q#A X014 (sc), vehicle: steriod suspending solution); 91 % of control (dose: 2.5 mg/kg/injection, schedule: Q01DX007 (sc), vehicle: steriod suspending solution); 84 % of control under setting [1]. For the same compound, the T/C is 36 % of control (dose: 2.5 mg/kg/injection, schedule: Q#A X014 (sc), vehicle: steriod suspending solution) and 60 % of control (dose: 10.0 mg/kg/injection, schedule: Q#A X014 (sc), vehicle: steriod suspending solution).

As to `NC(=O)CCC(NC(=O)c1ccc([N+](=O)[O-])cc1)C(=O)O` (stereo not drawn), the T/C is 69 % of control (dose: 62.5 mg/kg/injection, schedule: Q01DX007 (ip), vehicle: other); 50 % of control (dose: 125.0 mg/kg/injection, schedule: Q01DX007 (ip), vehicle: other); 63 % of control (dose: 250.0 mg/kg/injection, schedule: Q01DX007 (ip), vehicle: other).

For `CN(C)c1ccc2c(c1)Cc1cc(N=C3C=CC(=O)O3)ccc1-2`, the T/C is 83 % of control (dose: 48.0 mg/kg/injection, schedule: Q01DX007 (ip), vehicle: other); 101 % of control (dose: 73.0 mg/kg/injection, schedule: Q01DX007 (ip), vehicle: other); 40 % of control and 65 % of control (dose: 166.0 mg/kg/injection, schedule: Q01DX007 (ip), vehicle: other).

Turning to `Nc1nc(=O)n(C2CC(O)C(CO)O2)cc1Br` (stereo not drawn), the T/C is, setting by setting: (dose: 62.5 mg/kg/injection, schedule: Q#A X014 (ip), vehicle: carboxymethylcellulose (CMC)) 58 % of control; (dose: 125.0 mg/kg/injection, schedule: Q#A X014 (ip), vehicle: carboxymethylcellulose (CMC)) 57 % of control; (dose: 250.0 mg/kg/injection, schedule: Q#A X014 (ip), vehicle: carboxymethylcellulose (CMC)) 50 % of control.

As for `CC(=O)c1cccc(NC2C(N)C(NC(=O)N(C)C)(C(C)O)C(C)(O)C2(O)COC(=O)c2c(C)cccc2O)c1` (stereo not drawn), the T/C runs as follows: (dose: 0.5 mg/kg/injection, schedule: Q01DX007 (ip), vehicle: other) 88 % of control; (dose: 1.0 mg/kg/injection, schedule: Q01DX007 (ip), vehicle: other) 81 % of control; (dose: 2.0 mg/kg/injection, schedule: Q01DX007 (ip), vehicle: other) 110 % of control; (dose: 2.0 mg/kg/injection, schedule: Q01DX007 (ip), vehicle: saline) 66 % of control.

With `CCCCNP(=O)(N1CC1)N1CC1`, the T/C (dose: 0.15 mg/kg/injection, schedule: Q#A X014 (ip), vehicle: saline) was 18 % of control and the T/C (dose: 0.25 mg/kg/injection, schedule: Q#A X014 (ip), vehicle: saline) is 7 % of control.

As for `CC(=O)OCC(=O)[C@@]1(O)[C@H](C)C[C@H]2[C@@H]3C=C(C)C4=Cc5c(cnn5-c5ccc(F)cc5)C[C@]4(C)[C@H]3[C@@H](O)C[C@@]21C`, the T/C runs as follows: (dose: 0.44 mg/kg/injection, schedule: Q01DX007 (sc), vehicle: steriod suspending solution) 108 % of control; (dose: 0.66 mg/kg/injection, schedule: Q01DX007 (sc), vehicle: steriod suspending solution) 85 % of control; (dose: 2.25 mg/kg/injection, schedule: Q01DX007 (sc), vehicle: steriod suspending solution) 23 % of control and 34 % of control; (dose: 3.38 mg/kg/injection, schedule: Q01DX007 (sc), vehicle: steriod suspending solution) 37 % of control and 44 % of control and 62 % of control; (dose: 5.07 mg/kg/injection, schedule: Q01DX007 (sc), vehicle: steriod suspending solution) 26 % of control and 49 % of control; (dose: 7.61 mg/kg/injection, schedule: Q01DX007 (sc), vehicle: steriod suspending solution) 24 % of control. Besides, the T/C (dose: 11.42 mg/kg/injection, schedule: Q01DX007 (sc), vehicle: steriod suspending solution) is 24 % of control.

Turning to `CCCCNC(=O)c1n[se]nc1NC(N)=O`, the T/C reads like this: (dose: 15.0 mg/kg/injection, schedule: Q01DX007 (ip), vehicle: carboxymethylcellulose (CMC)) 94 % of control; (dose: 30.0 mg/kg/injection, schedule: Q01DX007 (ip), vehicle: carboxymethylcellulose (CMC)) 114 % of control.

As for `CC(=O)OC(C)(C)/C=C/C(=O)[C@](C)(O)[C@H]1[C@H](O)C[C@@]2(C)[C@@H]3CC=C4[C@@H](C[C@H](O)C(=O)C4(C)C)[C@]3(C)C(=O)C[C@]12C`, the T/C was 58 % of control (dose: 0.4 mg/kg/injection, schedule: Q01DX007 (ip), vehicle: saline) and 84 % of control (dose: 0.8 mg/kg/injection, schedule: Q01DX007 (ip), vehicle: saline).

Consider `CN(C)c1ccc(C(C#N)C(C#N)c2ccccc2)cc1` (stereo not drawn), for which the T/C by setting is: (dose: 8.85 mg/kg/injection, schedule: Q#A X014 (ip), vehicle: methylcellulose (MC)) 69 % of control and 84 % of control; (dose: 26.6 mg/kg/injection, schedule: Q#A X014 (ip), vehicle: methylcellulose (MC)) 4 % of control; (dose: 40.0 mg/kg/injection, schedule: Q#A X014 (ip), vehicle: methylcellulose (MC)) 56 % of control.

For `COC1C(O)CC(=O)OC(C)C/C=C/C=C/C(OC2CCC(N(C)C)C(C)O2)C(C)CC(CC=O)C1OC1OC(C)C(OC2CC(C)(O)C(O)C(C)O2)C(N(C)C)C1O` (stereo not drawn), the T/C is 124 % of control (dose: 44.0 mg/kg/injection, schedule: Q01DX007 (ip), vehicle: water); 85 % of control under setting [2]; 123 % of control under setting [3]; 95 % of control under setting [4]; 110 % of control under setting [5]; 72 % of control (dose: 337.0 mg/kg/injection, schedule: Q01DX007 (ip), vehicle: water).

Take `CCCCn1cnc2c(=S)nc(N)[nH]c21`: the T/C (dose: 1.65 mg/kg/injection, schedule: Q#A X014 (ip), vehicle: methylcellulose (MC)) was 82 % of control; the T/C under setting [1] is 93 % of control; the T/C (dose: 3.75 mg/kg/injection, schedule: Q#A X014 (ip), vehicle: methylcellulose (MC)) was 62 % of control; the T/C (dose: 5.5 mg/kg/injection, schedule: Q#A X014 (ip), vehicle: methylcellulose (MC)) was 49 % of control.

Regarding `C[C@H](N)C(=O)N[C@@H]1[C@H]2C(=C(O)C[C@@H](O)[C@@H]2O)C(=O)O[C@@H]1C`, the T/C was 66 % of control (dose: 250.0 mg/kg/injection, schedule: Q01DX007 (ip), vehicle: carboxymethylcellulose (CMC)); 42 % of control (dose: 500.0 mg/kg/injection, schedule: Q01DX007 (ip), vehicle: carboxymethylcellulose (CMC)); 12 % of control (dose: 1000.0 mg/kg/injection, schedule: Q01DX007 (ip), vehicle: carboxymethylcellulose (CMC)).

As for `Nc1nc2ncc(CNc3ccc(C(=O)NC(CCC(=O)O)C(=O)O)cc3)nc2c(=O)[nH]1` (stereo not drawn), the T/C is 84 % of control (dose: 6.31 mg/kg/injection, schedule: Q01DX007 (ip), vehicle: carboxymethylcellulose (CMC)); 76 % of control (dose: 12.62 mg/kg/injection, schedule: Q01DX007 (ip), vehicle: carboxymethylcellulose (CMC)); 56 % of control (dose: 25.25 mg/kg/injection, schedule: Q01DX007 (ip), vehicle: carboxymethylcellulose (CMC)); 74 % of control (dose: 50.5 mg/kg/injection, schedule: Q01DX007 (ip), vehicle: carboxymethylcellulose (CMC)).

`CCOC(=O)C(CO)NC(=O)C1(NC(C)=O)CCCC1` (stereo not drawn) (Ac-[Ac5c]-[ξS]-OEt): the T/C by setting is: under setting [2], 97 % of control; under setting [3], 94 % of control; under setting [4], 83 % of control; under setting [5], 74 % of control.
